Read-outs that look alike come from different tables or passages of the source.

The text below walks through data of publication PMC6199744, “Development of Chemical Proteomics for the Folateome and Analysis of the Kinetoplastid Folateome” (ACS Infectious Diseases, 2018).

Common to all, as to type: binding
The target in assay [1] is T1, HeLa cell extract proteins (Homo sapiens, UniProt Q7RTS9).
T1 construct: endogenous in cells; host or cells: HeLa cell extract
T1 sequence (Q7RTS9 1-669): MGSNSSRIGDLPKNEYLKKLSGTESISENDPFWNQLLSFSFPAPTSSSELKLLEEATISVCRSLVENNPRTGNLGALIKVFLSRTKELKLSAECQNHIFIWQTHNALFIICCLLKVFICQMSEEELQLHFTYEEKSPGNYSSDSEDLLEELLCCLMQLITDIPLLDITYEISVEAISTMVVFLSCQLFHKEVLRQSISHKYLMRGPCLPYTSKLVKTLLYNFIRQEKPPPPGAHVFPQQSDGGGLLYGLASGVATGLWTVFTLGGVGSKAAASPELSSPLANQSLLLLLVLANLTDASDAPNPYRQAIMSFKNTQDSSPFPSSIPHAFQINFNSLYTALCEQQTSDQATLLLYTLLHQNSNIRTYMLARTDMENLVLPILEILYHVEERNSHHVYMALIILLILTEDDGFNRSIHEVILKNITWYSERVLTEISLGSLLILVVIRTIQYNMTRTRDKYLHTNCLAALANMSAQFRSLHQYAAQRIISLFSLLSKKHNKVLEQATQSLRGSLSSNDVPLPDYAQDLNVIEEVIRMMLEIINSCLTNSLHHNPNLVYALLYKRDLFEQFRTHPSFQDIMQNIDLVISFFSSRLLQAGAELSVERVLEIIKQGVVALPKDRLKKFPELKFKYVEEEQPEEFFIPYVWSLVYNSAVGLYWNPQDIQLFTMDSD

Assay [2] has as its target T2, HeLa cell extract proteins (Homo sapiens, UniProt Q709F0).
T2 construct: endogenous in cells; host or cells: HeLa cell extract
T2 sequence (Q709F0 1-780): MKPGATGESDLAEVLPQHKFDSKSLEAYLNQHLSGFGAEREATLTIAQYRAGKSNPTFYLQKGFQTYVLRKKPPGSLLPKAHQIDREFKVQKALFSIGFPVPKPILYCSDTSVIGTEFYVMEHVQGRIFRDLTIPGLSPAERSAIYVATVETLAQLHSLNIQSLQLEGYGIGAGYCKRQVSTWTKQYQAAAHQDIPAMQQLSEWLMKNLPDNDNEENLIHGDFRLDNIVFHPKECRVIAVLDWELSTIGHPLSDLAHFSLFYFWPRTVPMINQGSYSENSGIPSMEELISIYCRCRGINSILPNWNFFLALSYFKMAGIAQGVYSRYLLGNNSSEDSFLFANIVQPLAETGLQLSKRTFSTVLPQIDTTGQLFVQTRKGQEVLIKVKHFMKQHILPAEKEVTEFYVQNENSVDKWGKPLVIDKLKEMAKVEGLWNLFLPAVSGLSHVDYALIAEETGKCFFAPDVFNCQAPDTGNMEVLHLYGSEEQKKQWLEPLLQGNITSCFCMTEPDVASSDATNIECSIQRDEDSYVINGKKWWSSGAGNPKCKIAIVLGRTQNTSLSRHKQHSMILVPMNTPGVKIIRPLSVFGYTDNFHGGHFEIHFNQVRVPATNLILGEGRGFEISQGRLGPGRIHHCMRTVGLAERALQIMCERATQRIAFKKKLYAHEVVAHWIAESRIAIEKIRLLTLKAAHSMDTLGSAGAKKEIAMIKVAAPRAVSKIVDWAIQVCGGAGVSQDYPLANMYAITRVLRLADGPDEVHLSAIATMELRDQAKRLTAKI

The target in assay [3] is T3, HeLa cell extract proteins (Homo sapiens, UniProt P30084).
T3 construct: endogenous in cells; host or cells: HeLa cell extract
T3 sequence (P30084 28-290): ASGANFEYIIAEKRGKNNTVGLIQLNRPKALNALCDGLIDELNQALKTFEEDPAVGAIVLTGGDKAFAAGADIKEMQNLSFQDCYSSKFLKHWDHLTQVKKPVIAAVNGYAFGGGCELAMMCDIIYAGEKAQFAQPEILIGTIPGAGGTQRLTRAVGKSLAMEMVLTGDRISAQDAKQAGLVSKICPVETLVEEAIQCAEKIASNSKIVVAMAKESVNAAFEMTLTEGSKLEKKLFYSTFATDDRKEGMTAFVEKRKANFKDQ

Assay [4] addresses T4, HeLa cell extract proteins (Homo sapiens, UniProt O00571).
T4 construct: endogenous in cells; host or cells: HeLa cell extract

For assay [5], the target named is T5, HeLa cell extract proteins (Homo sapiens, UniProt O00303).
T5 construct: endogenous in cells; host or cells: HeLa cell extract

Assay [6] deals with T6, HeLa cell extract proteins (Homo sapiens, UniProt Q9ULX6).
T6 construct: endogenous in cells; host or cells: HeLa cell extract
T6 sequence (Q9ULX6 1-646): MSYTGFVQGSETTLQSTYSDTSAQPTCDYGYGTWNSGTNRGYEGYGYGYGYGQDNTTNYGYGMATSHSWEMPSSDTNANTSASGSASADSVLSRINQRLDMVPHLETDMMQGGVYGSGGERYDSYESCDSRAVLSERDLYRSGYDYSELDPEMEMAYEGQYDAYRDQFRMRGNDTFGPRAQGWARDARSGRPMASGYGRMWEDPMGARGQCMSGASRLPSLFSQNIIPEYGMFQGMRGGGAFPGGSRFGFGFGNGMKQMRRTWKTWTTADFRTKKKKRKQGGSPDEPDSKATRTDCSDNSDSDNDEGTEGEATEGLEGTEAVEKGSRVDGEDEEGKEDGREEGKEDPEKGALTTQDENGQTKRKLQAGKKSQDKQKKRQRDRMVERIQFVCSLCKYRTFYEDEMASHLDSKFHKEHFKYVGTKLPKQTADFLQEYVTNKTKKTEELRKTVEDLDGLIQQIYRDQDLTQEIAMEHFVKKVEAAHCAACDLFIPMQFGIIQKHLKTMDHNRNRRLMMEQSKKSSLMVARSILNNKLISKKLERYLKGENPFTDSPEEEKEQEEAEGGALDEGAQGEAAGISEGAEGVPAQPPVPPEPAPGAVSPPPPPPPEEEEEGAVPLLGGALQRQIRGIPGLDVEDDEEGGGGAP

The target in assay [7] is T7, HeLa cell extract proteins (Homo sapiens, UniProt P60900).
T7 construct: endogenous in cells; host or cells: HeLa cell extract
T7 sequence (P60900 whole entry): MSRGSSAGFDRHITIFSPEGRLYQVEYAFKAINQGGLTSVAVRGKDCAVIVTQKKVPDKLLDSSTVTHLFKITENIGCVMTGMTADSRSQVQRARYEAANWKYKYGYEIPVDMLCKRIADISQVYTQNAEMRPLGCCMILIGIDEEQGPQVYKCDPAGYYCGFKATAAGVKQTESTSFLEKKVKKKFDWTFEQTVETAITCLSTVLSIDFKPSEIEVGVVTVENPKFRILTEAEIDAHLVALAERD

T5 sequence (O00303 whole entry): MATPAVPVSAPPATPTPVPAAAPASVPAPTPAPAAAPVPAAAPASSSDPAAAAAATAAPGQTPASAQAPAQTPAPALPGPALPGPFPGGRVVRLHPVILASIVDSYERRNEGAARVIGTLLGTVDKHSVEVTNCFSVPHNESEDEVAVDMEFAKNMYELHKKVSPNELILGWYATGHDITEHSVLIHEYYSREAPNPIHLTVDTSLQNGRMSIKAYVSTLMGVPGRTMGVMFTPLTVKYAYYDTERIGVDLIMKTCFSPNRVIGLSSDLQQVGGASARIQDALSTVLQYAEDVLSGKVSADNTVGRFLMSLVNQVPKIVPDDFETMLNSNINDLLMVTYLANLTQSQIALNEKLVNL
T4 sequence (O00571 whole entry): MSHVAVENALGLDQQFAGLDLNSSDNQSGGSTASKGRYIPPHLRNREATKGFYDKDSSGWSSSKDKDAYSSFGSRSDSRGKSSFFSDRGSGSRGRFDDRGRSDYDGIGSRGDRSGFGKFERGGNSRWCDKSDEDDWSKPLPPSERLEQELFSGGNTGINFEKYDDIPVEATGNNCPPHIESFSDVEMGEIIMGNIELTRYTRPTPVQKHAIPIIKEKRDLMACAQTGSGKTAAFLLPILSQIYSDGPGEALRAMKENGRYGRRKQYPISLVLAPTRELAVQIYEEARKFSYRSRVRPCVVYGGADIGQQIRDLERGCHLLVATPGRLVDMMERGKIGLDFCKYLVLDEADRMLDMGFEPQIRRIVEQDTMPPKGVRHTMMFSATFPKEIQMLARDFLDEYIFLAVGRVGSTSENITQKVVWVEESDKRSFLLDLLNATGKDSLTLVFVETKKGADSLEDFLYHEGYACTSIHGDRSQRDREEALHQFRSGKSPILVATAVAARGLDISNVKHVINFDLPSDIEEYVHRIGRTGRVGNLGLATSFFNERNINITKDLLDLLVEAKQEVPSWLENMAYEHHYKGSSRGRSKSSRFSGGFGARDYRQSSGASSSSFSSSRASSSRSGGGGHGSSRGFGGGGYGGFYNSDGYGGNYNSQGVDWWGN

Take `Nc1nc2c(c(=O)[nH]1)N(C=O)C(CNc1ccc(C(=O)N[C@@H](CCC(=O)O)C(=O)O)cc1)CN2` (stereo partly shown) [LEU, leucovorin]: the “fold changes relative to vehicle control” value in assay [1] (HeLa, protein DYM) is given as 0.78; in assay [2] (HeLa, protein ACAD11) it was 1.12; in assay [3] (HeLa, captured protein ECHS1), 0.89; in assay [4] (HeLa, captured protein DDX3X) it was 0.94; in assay [5] (protein EIF3F, HeLa) it was 0.95; in assay [6] (HeLa, protein AKAP8L), 1.01. Moreover, the “fold changes relative to vehicle control” value in assay [7] (HeLa, protein PSMA6) came to 1.02.

Regarding `Nc1nc2[nH]cc(CCc3ccc(C(=O)N[C@@H](CCC(=O)O)C(=O)O)cc3)c2c(=O)[nH]1` [PTX, pemetrexed], the “fold changes relative to vehicle control” value in assay [1] is 0.68; in assay [2], 0.98; in assay [3], 0.98; in assay [4] it was 0.86; in assay [5], 0.92; in assay [6] it was 0.95. The “fold changes relative to vehicle control” value in assay [7] stood at 1.

Take `CCCCCCOc1ccc(Cc2cnc(N)nc2N)cc1` [compound 1]: the “fold changes relative to vehicle control” value in assay [1] (HeLa, protein DYM) turned out to be 0.89; in assay [2] (captured protein ACAD11, HeLa) it was 1.02; in assay [3] (protein ECHS1, HeLa) it was 0.98; in assay [4] (protein DDX3X, HeLa), 0.96; in assay [5] (HeLa, protein EIF3F) it was 0.93; in assay [6] (captured protein AKAP8L, HeLa), 0.79. Also, in assay [7] (protein PSMA6, HeLa), the “fold changes relative to vehicle control” value is on record as 1.1.

Regarding `CCCCCCOc1cccc(Cc2cnc(N)nc2N)c1` [compound 2], the “fold changes relative to vehicle control” value in assay [1] (HeLa, protein DYM) stood at 1.27; in assay [2] (captured protein ACAD11, HeLa), 0.77; in assay [3] (protein ECHS1, HeLa), 0.92; in assay [4] (protein DDX3X, HeLa), 1.05; in assay [5] (HeLa, protein EIF3F) it was 1.24; in assay [6] (captured protein AKAP8L, HeLa) it was 1.03. Also, in assay [7] (protein PSMA6, HeLa), the “fold changes relative to vehicle control” value is listed as 1.27.

Take `Nc1nc2cccc(-c3ccccc3)c2n1Cc1ccc(Cl)c(Cl)c1` [compound 3]: the “fold changes relative to vehicle control” value in assay [1] (HeLa, protein DYM) stood at 0.88; in assay [2] (captured protein ACAD11, HeLa) it was 1.07; in assay [3] (protein ECHS1, HeLa), 0.91; in assay [4] (protein DDX3X, HeLa), 0.94; in assay [5] (HeLa, protein EIF3F) it was 1.05; in assay [6] (captured protein AKAP8L, HeLa) it was 0.92. Further, the “fold changes relative to vehicle control” value in assay [7] (protein PSMA6, HeLa) amounted to 1.02.

With `NCCOCCOCC(=O)Nc1nc2ncc(CNc3ccc(C(=O)NC(CCC(=O)O)C(=O)O)cc3)nc2c(=O)[nH]1` (stereo not shown) [compound 6], the “fold changes relative to vehicle control” value worked out at 0.86 in assay [1] (HeLa, protein DYM); 0.95 in assay [2] (HeLa, protein ACAD11); 0.76 in assay [3] (HeLa, captured protein ECHS1); 0.9 in assay [4] (HeLa, captured protein DDX3X); 0.96 in assay [5] (protein EIF3F, HeLa); 1.01 in assay [6] (HeLa, protein AKAP8L). The “fold changes relative to vehicle control” value in assay [7] (HeLa, protein PSMA6) is listed as 1.

For `NCCCNc1ccc(C(=O)NC(CCC(=O)O)C(=O)O)cc1` (stereo not shown) [compound 7], the “fold changes relative to vehicle control” value in assay [1] (HeLa, protein DYM) amounted to 0.94; in assay [2] (HeLa, protein ACAD11) it was 1.05; in assay [3] (HeLa, captured protein ECHS1), 0.91; in assay [4] (HeLa, captured protein DDX3X), 0.93; in assay [5] (protein EIF3F, HeLa) it was 1.01; in assay [6] (HeLa, protein AKAP8L), 1.08. For the same molecule, in assay [7] (HeLa, protein PSMA6), the “fold changes relative to vehicle control” value came out at 1.
